Experimental data: EP2958945B1, “COMBINATION THERAPY INVOLVING ANTIBODIES AGAINST CLAUDIN 18.2 FOR TREATMENT OF CANCER” (Astellas Pharma Inc., priority 2013, dated 2014)

Legend:
DANG [1] = test: IMAB362-mediated ADCC on chemotherapy pretreated DANG; type: cell-based, human; settings: DANG pretreated 2 days, Gem 1 ng/ml or Gem 1 ng/ml + Ox 10 ng/ml; vs untreated
Protocol: Pancreatic cancer target cells were seeded two days in advance in flasks to obtain 80-90% confluent cultures on the day ADCC started. […] NUGC-4 sub 10cH11 subE10 Luci#2 cells (8000 cells/well) were seeded in addition as positive controls in all assays. Cells were cultivated for 4-6 h before addition of antibody and purified PBMCs.
PBMCs were prepared from fresh human buffy coat obtained from healthy donors. About 3x 20-25 ml blood was diluted (1:2) with PBS and carefully layered on 4x 15 ml Ficol-Paque Plus (GE Healthcare) in 50 ml Falcon tubes. Gradients were centrifuged (25 min, 700 g). […] The pellets were resuspended in 50 ml PBS/2 mM EDTA and cells were counted. […]
The next day, 10 µl 8% Triton X100/PBS solution was added to the lysis control wells and 10 µl PBS in all other wells. […] Luminescence resulting from the oxidation of […] by the luciferase of viable cells was measured using a microplate-reader (Infinite200, Tecan, Switzerland). Percentage of cellular cytotoxicity was calculated using the following formula: Specific killing (%) = 100−[(RLUsample−RLUtriton)/(RLUmedium ctrl−RLUtriton)×100] […]
On the day ADCC started, the protocol described above was followed and cell surface expression of CLDN18 was determined in FACS analysis as described above.

CLDN18.2 = CLDN18.2 expression after chemotherapeutic pretreatment (RT-PCR, western blot), DANG; type: cell-based, human; settings: Gem 1 ng/ml or Gem 1 ng/ml + Ox 10 ng/ml, 2 days, vs untreated
Protocol: For RNA isolation from pancreatic cancer cell lines, cells were seeded in 10 cm dishes and grown for 2-3 days until 80% confluent. RNA was isolated according to instructions supplied with the RNeasy® Mini Kit (Qiagen). cDNA preparation was performed following manufacturers instructions provided with the SuperScript® III First Strand kit (Invitrogen). RNA and cDNA samples were stored at -80°C.
Quantitative analysis of CLDN18.2 transcripts was performed by amplifying oligo(dT)-primed cDNAs in a 40 cycle PCR reaction using PCR primers #5054s (5'-[…]-3') and #5060as (5'-[…]-3') differentiating between CLDN18.1 and CLDN18.2 isoforms. The reaction was prepared with SYBR Green (QuantiTect SYBR Green PCR Kit, Qiagen), which intercalates in double stranded DNA. The reactions and measurements were performed using the ABI-PRISM7900 Sequence Detection System instrument and software (Applied Biosystems).
The relative expression levels of CLDN18 transcripts was computed using ΔΔCT calculation with respect to the house keeping gene HPRT.
For isolation of proteins of pancreatic cancer cell lines, cells were seeded in 10 cm dishes and grown for 2-3 days until 80% confluent. […] Protein concentration was measured in a spectrophotometer (Absorption at 280nm) and samples were stored at -80°C until use. […]

BxPC3-LVT xenografts = test: Subcutaneous BxPC3-LVT xenograft model; type: in vivo, Hsd:Athymic Nude-Foxn1^nu mice; settings: up to 100 mg/kg gemcitabine without additional IMAB362 treatment
DANG [2] = test: Cell cycle analysis, DANG; type: cell-based, human; settings: Gem 2 ng/ml, two days
Protocol: Cells were plated in six-well plates, and 5-6 hours later chemotherapeutic agents were added for either 24 h 48 h or 3 days. Cells floating in the medium were combined with the adherent cell layer, which was trypsinized. Cells were washed. Either cell cycle analysis was started directly or cell surface staining was done before as described above. Cells are resuspended in 1 ml PBS and added to 3 ml 4% PFA. After 15 min fixation of cells at room temperature cells are pelleted and washed. For RNAse treatment cells were resuspended in 200 µl RNAse (10000 U/ml) plus 0.05% Triton X-100 and incubated for 30 min at 37°C. 1 ml PBS was added and samples were centrifuged and resuspended in 200 µl PBS/PJ 50 µg/ml. At least 30 min later samples were ready to be analyzed by flow cytometry. Cell cycle phase distribution was determined using FlowJo software to analyze DNA content histograms.

MiaPaCa-2-LVT xenografts = test: Subcutaneous MiaPaCa-2-LVT xenograft model; type: in vivo, Hsd:Athymic Nude-Foxn1^nu mice; settings: up to 100 mg/kg gemcitabine without additional IMAB362 treatment
[3] = tested on: established MiaPaCa-2-LVT xenograft tumors; test: Established MiaPaCa-2-LVT xenograft tumors; type: in vivo, Hsd:Athymic Nude-Foxn1^nu mice; settings: gemcitabine 2x 150 mg/kg per week, independent from IMAB362 treatment
DANG [4] = test: Inhibition of proliferation (XTT), DANG; type: cell-based, human; settings: exposed for 4 days
Protocol: (§1) To analyze dose-response curves of each chemotherapeutic agent, a proliferation assay was performed. Table 6: Pancreas cancer cell lines to analyze efficacy of gemcitabine or oxaliplatin
(§2) Cells were seeded in 96well plates and after 4-6 hours gemcitabine or oxaliplatin was added in following concentrations: 1000, 500, 250, 100 and 20 ng/ml. The proliferation assay was incubated for 4 days at 37°C and 5% CO2. 50 µl XTT complete reagent (50 parts XTT + 1 part coupl. reagent mixed) was added and incubated at 37°C. Measurement of absorbance (cells plus supernatant) was done with the Tecan Safire after 3 h and 4 h. Inhibition of proliferation was calculated compared to medium values set as 100%. EC50 values for gemcitabine and oxaliplatin were calculated in the GraphPad Prism program.

Capanl-LVT = test: Inhibition of proliferation (XTT), Capanl-LVT; type: cell-based, human; settings: exposed for 4 days
Protocol: as §1, §2

MiaPaCa-2-LVT = test: Inhibition of proliferation (XTT), MiaPaCa-2-LVT; type: cell-based, human; settings: exposed for 4 days
Protocol: as §1, §2

Kato III cells = test: Cell cycle analysis and cell growth, Kato III; type: cell-based, human; settings: Kato III; 5-FU 10 or 100 ng/ml, oxaliplatin 50 or 500 ng/ml; 96 hours
Protocol: Kato III cells, a human gastric tumor cell line, was cultivated in RPMI 1640 medium (Invitrogen) containing 20% FCS (Perbio) and 2 mM Glutamax (Invitrogen) at 37°C and 5% CO2, with or without cytostatic compounds. 5-FU (Neofluor from NeoCorp AG) was tested at a concentration of 10 or 100 ng/ml, and oxaliplatin (Hospira) was tested at a concentration of 50 or 500 ng/ml. […] Cells were harvested with EDTA/trypsin, washed and analysed.
Cell cycle stages were determined based on measurement of cellular DNA content. This allows one to discriminate between cells in the G1-, S- or G2-phase of the cell cycle. In the S-phase DNA duplication occurs whereas in the G2-phase cells grow and prepare for mitosis. Cell cycle analysis was done using the CycleTEST PLUS DNA Reagent Kit from BD Biosciences following the manufacturer's protocol. Flow cytometry acquisition and analysis were performed by using BD FACS CantoII (BD Biosciences) and FlowJo (Tree Star) software.
Kato III cells were pretreated for 4 days with Irinotecan or Docetaxel and analysed for CLDN18.2 expression and cell cycle arrest.

BxPC3-LVT = test: Inhibition of proliferation (XTT), BxPC3-LVT; type: cell-based, human; settings: exposed for 4 days
Protocol: as §1, §2

| SMILES | susceptibility for IMAB362 mediated ADCC (DANG [1]) | mRNA and protein levels of CLDN18.2 (CLDN18.2) | therapeutic effect on xenograft (BxPC3-LVT xenografts) | cell cycle arrest (DANG [2]) | therapeutic effect on xenograft (MiaPaCa-2-LVT xenografts) | tumor growth [3] | IC50 Inhibition of Proliferation (DANG [4]) [µg/mL] | IC50 Inhibition of Proliferation (Capanl-LVT) [µg/mL] | IC50 Inhibition of Proliferation (MiaPaCa-2-LVT) [µg/mL] | cell cycle phase distribution (Kato III cells) | IC50 Inhibition of Proliferation (BxPC3-LVT) [µg/mL] |
| --- | --- | --- | --- | --- | --- | --- | --- | --- | --- | --- | --- |
| Nc1ccn([C@@H]2O[C@H](CO)[C@@H](O)C2(F)F)c(=O)n1 [gemcitabine, 4-amino-1-(2-deoxy-2,2-difluoro-β-D-erythro-pentofuranosyl)pyrimidin-2(1H)-one] | higher susceptibility | increased mRNA and protein levels | no significant therapeutic effect | cell cycle arrest in S-Phase | no significant therapeutic effect | strongly inhibited in tumor growth | – | – | – | – | – |
| O=C1[O][Pt]2([NH][C@@H]3CCCC[C@H]3[NH]2)[O]C1=O [oxaliplatin, [(1R,2R)-cyclohexane-1,2-diamine](ethanedioato-O,O')platinum(II)] | – | – | – | – | – | – | ~0.5 | ~0.1 | 0.05 to 0.1 | enrichment of cells predominantly in the G1- and G2-phases | 0.5 to 1 |
